From US20240174762A1, “METHODS, COMPOSITIONS AND USES FOR TARGETING SEMA7A IN THE DIAGNOSIS AND TREATMENT OF HEALTH CONDITIONS” (THE REGENTS OF THE UNIVERSITY OF COLORADO, A BODY CORPORATE, priority 2021, published 2024) come the findings set out here.

The subject of this assay is human MCF7 model of ER+ breast cancer. The assay is described as follows: ER+ SEMA7A expressing tumors, human MCF7 model. The note with it: FIG. 11. The format is in vivo, mice. The source says:
FIGS. 11A-11H represents various graphs and images of tumor analysis and treatment according to various aspects of the disclosure. (A) represents analysis for relapse free survival of breast cancer patients treated with endocrine therapy assessed for SEMA7A levels; (B) MCF7 tumor cell growth in mice treated with endocrine therapy (e.g., Fulvestrant); (C) Lung metastasis of MCF7 in mice from 11B; (D) is a representative image illustrating BCL2 expression in SEMA7A OE cells; (E) MCF7 tumor growth in mice treated with endocrine therapy and a Bcl-2 inhibitor (e.g., Venetoclax) indicated by the arrows; (F) Lung metastasis in mice from […] above; (G) illustrates clonogenic growth of MCF7 EV or SEMA7A OE cells treated with 5 μM SU6656; clonogenic data are normalized to vehicle controls; and (H) represents clonogenic growth of MCF7 EV or SEMA7A OE cells treated with a composition according to various aspects of the disclosure.
In another exemplary method, ER+SEMA7A expressing tumors are resistant to anti-estrogen-based therapy (Fulvestrant), anti-CDK4/6 therapy (Palbociclib), and chemotherapy but are sensitive to inhibition of cell survival pathways. […]

For the compound `C[C@]12CC[C@@H]3c4ccc(O)cc4C[C@@H](CCCCCCCCC[S+]([O-])CCCC(F)(F)C(F)(F)F)[C@H]3[C@@H]1CC[C@@H]2O` (stereo partly shown) [Fulvestrant], the “response of ER+SEMA7A expressing tumors to therapy” value is given as “resistant”.
